# Data from patent publication EP4813381A1, “PHARMACEUTICAL USE OF GUAIANE SESQUITERPENE DERIVATIVE” (Nanjing University Of Chinese Medicine, priority 2023, dated 2025).
# Key:
# 4T1 cells = type: in vivo, BALB/c mice; details: 4T1, oral 40 µmol/kg/day, 3 weeks
# Experimental: 4T1 cells were cultured and expanded in vitro. […] A 100 µL aliquot of this suspension was injected subcutaneously into the left forelimb axilla of female BALB/c mice. […] Daily oral administration was performed for 3 weeks. During the treatment period, mouse body weight and tumor diameter were measured daily. At the end of the experiment, mice were euthanized by cervical dislocation, and tumors were removed for weighing. Tumor volume (TV) was calculated using the formula: TV = 1/2 × a × b^2, where a represents the longest diameter of the tumor and b represents the shortest diameter.
# CCR2 mRNA = CCR2 mRNA level in MDSCs (PCR); type: cell-based, mice; details: CCR2 mRNA levels in MDSCs, 2 h
# Experimental: Mice were euthanized by cervical dislocation and immersed in 75% ethanol solution for 5 min. Under sterile conditions, the tibia was removed, both ends of the bone were cut, and bone marrow was repeatedly flushed into a 15 mL centrifuge tube using a 1 mL syringe filled with culture medium. Centrifuge at 1600 rpm for 5 min to collect bone marrow cells. Wash twice with 1×PBS, then resuspend in RPMI 1640 complete medium containing GM-CSF (10 ng/mL) + IL-4 (10 ng/mL) and transfer to a cell culture dish to stimulate differentiation of bone marrow cells into MDSCs. Count cells and adjust density to 1 × 10^6 cells/mL in complete medium. Seed cells uniformly into 6-well plates at 2 mL per well. […] After incubation, collect cells into centrifuge tubes, centrifuge at 1600 rpm for 5 min, wash once with 1×PBS, and add 500 µL RNA extraction reagent to each tube. After centrifugation to obtain the pellet, add 20 µL DEPC-treated water to each tube to dissolve the pellet. Determine RNA concentration and reverse transcribe to cDNA. Add the cDNA, primers, and reverse transcriptase to a 96-well plate. Centrifuge at 4000 rpm for 5 min, then place in a PCR instrument for detection.
# MDSCs = test: Inhibition of MDSC chemotaxis (Transwell, Hepa1-6 tumor-conditioned medium); type: cell-based, mice; details: 12 h treatment, 24 h Transwell
# Experimental: Hepa1-6 mouse hepatocellular carcinoma cells were uniformly seeded into 6-well plates. After cells reached confluence, supernatant was aspirated, and 1-1.5 mL fresh medium was added to each well. Following 24 h culture, supernatant was collected, centrifuged at 1600 rpm for 5 min, aspirated, and filtered through a 0.22 µm membrane to obtain tumor-conditioned medium for subsequent use. Euthanize mice by cervical dislocation and immerse in 75% ethanol solution for 5 min. Under sterile conditions, remove the tibia, cut both ends of the bone, and aspirate the bone marrow into a 1 mL syringe. Repeat flushing into a 15 mL centrifuge tube. Centrifuge at 1600 rpm for 5 min to collect bone marrow cells. Wash twice with 1×PBS. Resuspend cells in complete RPMI 1640 medium containing cytokines GM-CSF (10 ng/mL) and IL-4 (10 ng/mL) to stimulate differentiation into MDSCs. Count cells, adjust density to 1×10^6 cells/mL, and uniformly seed into 24-well plates at 300 µL per well. […] Centrifuge at 1600 rpm for 5 min, remove supernatant, resuspend cells in 300 µL fresh medium, and place into Transwell chambers. Add 600 µL normal medium (control group) or tumor-conditioned medium (model group) to the lower chamber. Co-culture for 24 h.
# physchem = details: water, 37 °C, thermodynamic from solid
# [1] = tested on: inflammatory factors (TNF, IL-6, IL-1); test: Lupus nephritis MRL/lpr mice: Q-PCR of renal inflammatory factors; type: in vivo; details: kidney mRNA, oral 30 mg/kg, 8 weeks
# Experimental: Production license number: SCXK(Su)2023-0009. […] They were acclimated for 7 days before use in experiments.
# Oral administration was performed continuously for 8 weeks.
# Allow blood to stand at room temperature for 2 hours, then centrifuge at 3000 rpm for 20 minutes. Aspirate the serum, aliquot it, and store at -70 °C for future use. After blood collection, euthanize mice by cervical dislocation. Open the abdominal cavity, remove kidneys, and dissect out perirenal fat and capsules. […] Store remaining tissues at -70 °C for future use.
# Additional primer information is as follows: Table 19. Q-PCR Primer Information
# lupus nephritis = test: Lupus nephritis MRL/lpr mice: urinary protein, Scr, BUN, urinary Kim-1 and β-MG; type: in vivo; design: Scr / BUN / Kim-1 / β-MG: unit not given here; details: oral 30 mg/kg, 8 weeks
# Experimental: RT Supermix for qPCR, Nanjing Vazyme Biotech Co., Ltd.; Urea Colorimetric Test Kit, Creatinine Colorimetric Test Kit, Nanjing Jiancheng Biotechnology Co., Ltd.; Urinary Kim-1 and β-MG Content ELISA Kits, Abcam. • Experimental animals: MRL/MpJ and MRL/lpr mice, female, 10 weeks old, purchased from GemPharmatech LLC. Production license number: SCXK(Su)2023-0009. […] They were acclimated for 7 days before use in experiments. […] Oral administration was performed continuously for 8 weeks. […] Aspirate the serum, aliquot it, and store at -70 °C for future use. After blood collection, euthanize mice by cervical dislocation. Open the abdominal cavity, remove kidneys, and dissect out perirenal fat and capsules. […] Store remaining tissues at -70 °C for future use. Serum Creatinine (Scr) and Blood Urea Nitrogen (BUN) Assay: […] Samples were added sequentially strictly according to the kit instructions, incubated at 37 °C, and measured for absorbance values using an enzyme-linked immunosorbent assay (ELISA) reader. The concentration levels of each indicator were calculated based on the standard curve.
# [2] = Conversion rate of salt-form prodrugs to parent compound in HEPES buffer solution; type: physicochemical; details: conversion to Compound 83, HEPES buffer pH 7.4, 37 °C
# Procedure, shortened: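 Salt-form prodrug dissolved in water was mixed 1:1 with HEPES buffer pH 7.4 (or mouse serum) and incubated at 37°C. Aliquots were quenched with methanol and centrifuged, and supernatants taken at 1, 2, 4, 8 and 12 h were analysed by HPLC. Conversion was followed by peak areas.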
# [3] = Conversion rate of salt-form prodrugs to parent compound in mouse plasma; type: in vitro ADME; details: conversion to Compound 83, mouse plasma, 37 °C
# [4] = tested on: fibrosis-related factors (Acta2, Col1a1, Tgfb1); test: CCl4 acute liver injury model in mice: Q-PCR of fibrosis-related factors in liver; type: in vivo, C57BL/6 mice; details: liver mRNA, 200 mg/kg
# Experimental: They were acclimated for 7 days before use in experiments. • Experimental Methods: Establishment of Acute Liver Injury Model in Mice and Group-Specific Drug Administration • Mice were randomly assigned to groups. One group was arbitrarily designated as the normal group, while the remaining groups served as model group, Compound 1 group, Hydrochloride 20 group, Fumarate 21 group, and Silibinin group, with 6 mice per group. Except for the normal group receiving 10 mL olive oil/kg via injection, all other mice received 0.5 mL CCl4 + 9.5 mL olive oil/kg body weight via intraperitoneal injection, maintaining a CCl4 to olive oil ratio of 1:19. Starting from day 1 of modeling, Compound 1, Hydrochloride 20, and Fumarate 21 were administered orally for 3 consecutive days. […] The blood was allowed to stand at room temperature for 2 hours, then centrifuged at 3000 rpm for 20 minutes. Serum was aspirated, aliquoted, and stored at -70 °C for future use. After blood collection, euthanize mice by cervical dislocation. Perform laparotomy to remove the liver. Rinse twice with pre-chilled PBS. Excise the left hepatic lobe tissue. […] Store remaining tissue at -70 °C for future use. • Serum AST and ALT Assay: Use 10 µL of each sample for testing. Determine mouse serum AST and ALT levels according to the operating manual. Measure absorbance at 510 nm using an enzyme-linked immunosorbent assay (ELISA) reader. Calculate sample concentration (U/L) based on the standard curve.
# Q-PCR Analysis: Tissue total RNA extraction, cDNA synthesis, and PCR amplification methods are identical to Example 4. Additional primer information is as follows:
# Data Statistics: All data are expressed as means ± standard error of the mean (S.E.M.). Differences were analyzed for significance using analysis of variance (ANOVA). For groups showing significant differences in ANOVA, one-way ANOVA followed by Dunnett's test was performed to compare intergroup differences.
# [5] = tested on: CCl4-induced liver injury; test: CCl4 acute liver injury model in mice: serum ALT and AST; type: in vivo, C57BL/6 mice; details: 200 mg/kg (method: U/L)
# Excerpt: The drug of the present invention, prepared according to Example 2; Silybin, Shanghai Yuanye Biotechnology Co., Ltd.; Olive oil, Beijing […] Olive Oil Development Center; Analytical grade carbon tetrachloride (CCl4), Shantou Xilong Chemical Factory; Sodium carboxymethyl cellulose (CMC-Na), Guangdong Shantou Xilong Chemical Factory; RNA Isolater Total RNA Extraction Reagent, […] RT Supermix for qPCR, Nanjing Vazyme Biotech Co., Ltd.; AceQ qPCR SYBR Green Master Mix, Shanghai Yeasen Biotechnology Co., Ltd.; Aspartate Transaminase (AST/GOT) Colorimetric Test Kit, Alanine Transaminase (ALT/GPT) Colorimetric Test Kit, Wuhan Elabscience Biotechnology Co., Ltd. • Experimental animals: […] SCXK(Su)2019-002. […] They were acclimated for 7 days before use in experiments. • Experimental Methods: Establishment of Acute Liver Injury Model in Mice and Group-Specific Drug Administration • Mice were randomly assigned to groups. […] One hour after the final drug administration, blood was collected from the retinal venous plexus. […] Serum was aspirated, aliquoted, and stored at -70 °C for future use. After blood collection, euthanize mice by cervical dislocation. Perform laparotomy to remove the liver. Rinse twice with pre-chilled PBS. Excise the left hepatic lobe tissue. […] Store remaining tissue at -70 °C for future use. • Serum AST and ALT Assay: Use 10 μL of each sample for testing. Determine mouse serum AST and ALT levels according to the operating manual. Measure absorbance at 510 nm using an enzyme-linked immunosorbent assay (ELISA) reader. Calculate sample concentration (U/L) based on the standard curve. Data Statistics: All data are expressed as means ± standard error of the mean (S.E.M.). Differences were analyzed for significance using analysis of variance (ANOVA). For groups showing significant differences in ANOVA, one-way ANOVA followed by Dunnett's test was performed to compare intergroup differences.
smiles,measurement,setting,value
C=C1C(=O)O[C@H]2[C@H]1CCC(C)=C1CC[C@@](C)(OC(=O)NCCN3CCOCC3)[C@@H]12 [compound 99],antitumor effects,4T1 cells,no significant antitumor effects
C=C1C(=O)O[C@H]2[C@H]1CCC(C)=C1CC[C@@](C)(OC(=O)NCCN3CCOCC3)[C@@H]12 [compound 78],CCR2 mRNA suppression rate in MDSCs (%),CCR2 mRNA; 1 µM,23.0%
same,CCR2 mRNA suppression rate in MDSCs (%),CCR2 mRNA; 10 µM,52.7%
same,Suppression Rate (%),MDSCs; 1 µM,29.0%
same,Suppression Rate (%),MDSCs; 10 µM,67.1%
C=C1C(=O)O[C@H]2[C@H]1CCC(C)=C1CC[C@@](C)(OC(=O)N3CCCCC3)[C@@H]12 [compound 83],CCR2 mRNA suppression rate in MDSCs (%),CCR2 mRNA; 1 µM,17.0%
same,CCR2 mRNA suppression rate in MDSCs (%),CCR2 mRNA; 10 µM,70.0%
same,Suppression Rate (%),MDSCs; 1 µM,29.4%
same,Suppression Rate (%),MDSCs; 10 µM,75.9%
same,solubility,physchem,152 µg/mL
"CC(C)(O)c1coc(S(=O)(=O)NC(=O)Nc2c3c(cc4c2CCC4)CCC3)c1 [MCC950, reference compound]",Il1,[1],5.43±0.71
same,Il6,[1],9.52±0.84
same,Tnf,[1],4.33±0.52
same,24-hour urine protein level,lupus nephritis,0.89±0.11
same,BUN,lupus nephritis; serum,12.08±2.01
same,Scr,lupus nephritis; serum,22.18±3.41
same,Kim-1,lupus nephritis; urine,0.53±0.06
same,β-MG,lupus nephritis; urine,15.41±0.39
CC1=C2CC[C@@](C)(OC(=O)N3CCCCC3)[C@@H]2[C@H]2OC(=O)[C@@H](CN(C)C)[C@@H]2CC1 [compound 102],antitumor effects,4T1 cells,no significant antitumor effects
same,Release rate,[2]; 1 h,6.8%
same,Release rate,[2]; 2 h,14.6%
same,Release rate,[2]; 4 h,24.8%
same,Release rate,[2]; 8 h,43.0%
same,Release rate,[2]; 12 h,51.8%
same,Release rate,[3]; 1 h,6.6%
same,Release rate,[3]; 2 h,14.0%
same,Release rate,[3]; 4 h,26.0%
same,Release rate,[3]; 8 h,42.4%
same,Release rate,[3]; 12 h,47.8%
"COc1cc(C2Oc3cc([C@H]4Oc5cc(O)cc(O)c5C(=O)[C@@H]4O)ccc3OC2CO)ccc1O (stereo partly shown) [Silybin, reference compound]",Acta2,[4],2.91±0.48
same,Col1a1,[4],1.84±0.17
same,Tgfb1,[4],1.11±0.08
same,ALT,[5],121.58±15.45
same,AST,[5],301.45±38.44
